# Results published in patent US20200024574A1, “STEM CELL-DERIVED ASTROCYTES, METHODS OF MAKING AND METHODS OF USE” (MEMORIAL SLOAN-KETTERING CANCER CENTER, priority 2017, published 2020).
# Entries after “also recorded” stand apart in the source; their conditions may differ.
# B1: BMP4: gliogenic molecule, bone morphogenetic protein (protein, UniProt P12644 293-408, looked up)
# Bone morphogenetic protein 4: SPKHHSQRARKKNKNCRRHSLYVDFSDVGWNDWIVAPPGYQAFYCHGDCPFPLADHLNSTNHAIVQTLVNSVNSSIPKACCVPTELSAISMLYLDEYDKVVLKNYQEMVVEGCGCR
# How the values were obtained:
# Type in all cases: cell-based, human
# LTNSCs = assay: Differentiation of LTNSCs or neural rosettes (no NFIA induction) in media containing gliogenic molecules; conditions: short term, 14 days, no NFIA induction (FIG. 2B)
# Method: These cells were also TUJ1 negative implying their homogenous nature of being nearly 100% neural stem cells (FIG. 2A). […] In the FBS condition, the expression of gliogenic factors was assessed and expression of SOX9 and NFIA was more enriched when cultured with FBS compared to the other treatments (FIG. 3).
# (§1) For immunohistochemistry, cells were fixed in PBS containing 4% paraformaldehyde (EMS) for 10 minutes and permeabilized using PBS with 0.5% Triton-X for 5 minutes and stored in PBS with 0.2% Tween-20. The blocking solution contained 5% donkey serum in PBS with 0.2% Tween-20. Primary antibodies were diluted in the blocking solution and typically incubated overnight at 4 C. Secondary antibodies conjugated to Alexa 488, Alexa 555 or Alexa 647 (Thermo) were added to the cells and incubated for 30 minutes. Nuclei were identified by staining the cells with 4′,6-diamidino-2-phenylindole (DAPI, Thermo).
# NFIA-induced LTNSCs = assay: Astrocyte differentiation of NFIA-induced LTNSCs after doxycycline removal with glial differentiation factors; conditions: for expression of GFAP after removing the expression of NFIA: NFIA exposed cells, especially in the absence of FGF2 (FIG. 4C)
# Method: Typically, regionally patterned neural stem cells are infected with lentiviral particles containing FUW-NFIA and FUW-M2-rtTA and induced with doxycycline (dox) one day after infection. Cells are kept in dox media for a minimum of 5 days and then switched to the astrocyte induction media (N2 media with 10 ng/ml HB-EGF (R&D Systems) and 10 ng/ml Leukemia inhibitory factor (Peprotech)) without dox for a minimum of 5 days. Glial progenitors and astrocytes can be isolated using CD44.
# as §1
# neurogenic NSCs [1] = assay: Western blot analysis of NFIA in NSCs treated with TGFβ1; conditions: TGFβ1 for 7 days, Western blot (FIG. 12K)
# neurogenic NSCs [2] = assay: Cell cycle analysis by FACS on NSCs treated with TGFβ1; conditions: TGFβ1 for 48 hours, FACS (FIG. 12L)
# Method: Cells were dissociated nuclei were isolated for cell cycle analysis. Propidium Iodine (250 ng/ml) was added to the cells and analyzed by FACS. A minimum of 10,000 events was analyzed per condition. Data acquired was imported and analyzed by the Flowjo software.
# neurogenic NSCs [3] = assay: Immunofluorescence for NFIA and GFAP after TGFβ treatment followed by LIF medium; conditions: TGFβ followed by LIF-containing medium for 2 weeks (FIG. 12M)
# Method: as §1
Molecule,fate of LTNSCs: neurons (TUJ1/βIII-Tubulin) versus GFAP+ astrocytes (LTNSCs),"GFAP expression (quantitative PCR) (NFIA-induced LTNSCs; 5 days dox then dox removal, +LIF versus +EGF/FGF2 (FIG. 10E))","efficiency of astrocyte differentiation (GFAP+ cells, AQP4-H2B-GFP reporter) after dox removal (NFIA-induced LTNSCs; LIF compared with BMP4 or FBS)",expression of GFAP after removing the expression of NFIA (NFIA-induced LTNSCs),expression of NFIA (neurogenic NSCs [1]),cells in the G1 phase of the cell cycle (neurogenic NSCs [2]),appearance of GFAP+ cells (neurogenic NSCs [3])
"LIF: leukemia inhibitory factor, glial-promoting factor",became neurons rather than GFAP+ astrocytes; also recorded: increased expression of the neuronal marker TUJ1 rather than the astrocyte marker GFAP,strongly induced,most efficient in generating GFAP+ cells and activating the AQP4-H2B-GFP reporter,enhanced the expression of GFAP,,,
TGFβ1: upstream activator of NFIA; transforming growth factor beta,,,,,induced the expression of NFIA,enriched for cells in the G1 phase of the cell cycle,resulted in the appearance of GFAP+ cells
B1,became neurons rather than GFAP+ astrocytes; also recorded: increased expression of the neuronal marker TUJ1 rather than the astrocyte marker GFAP,,,enhanced the expression of GFAP,,,
